What all share (assay): biochemical
Holding throughout (set-up): Eurofins KinaseProfiler full panel at Km ATP, residual kinase activity (%) relative to DMSO

For test [1], the target named is T1, PI3 Kinase (p110a(H1047R)/p85a)(m) (Mus musculus, UniProt P42337, H1047R).
T1 construct: gene Pik3ca
In a few lines: (§1)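 Radiometric kinase activity assays were run with ATP at Km and compounds at 10 µM, and remaining activity (%) was reported. A separate competitive binding screen measured DNA-tagged kinase displaced from immobilized active-site ligands by qPCR, giving percent kinase still bound at 10 µM compound in DMSO.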

A further test has as its target SRPK2(h) (Homo sapiens, UniProt P78362). In outline:
as §1

The target of the next test is T2, CaMKIß(h) (Homo sapiens, UniProt Q6P2M8).
T2 construct: gene PNCK
T2 sequence (Q6P2M8 whole entry): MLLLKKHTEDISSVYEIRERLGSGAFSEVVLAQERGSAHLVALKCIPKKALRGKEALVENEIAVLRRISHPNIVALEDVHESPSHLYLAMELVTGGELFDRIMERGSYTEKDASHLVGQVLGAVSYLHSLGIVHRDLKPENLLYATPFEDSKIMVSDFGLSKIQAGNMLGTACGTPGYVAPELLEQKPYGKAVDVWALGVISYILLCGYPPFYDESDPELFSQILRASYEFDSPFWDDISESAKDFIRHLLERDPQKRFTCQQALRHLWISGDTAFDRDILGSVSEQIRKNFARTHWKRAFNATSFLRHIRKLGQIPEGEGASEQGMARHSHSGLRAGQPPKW
In a few lines: as §1

A further test concerns the target T3, IKKβ(h) (Homo sapiens, UniProt O14920).
T3 construct: gene IKBKB
T3 sequence (O14920 1-756): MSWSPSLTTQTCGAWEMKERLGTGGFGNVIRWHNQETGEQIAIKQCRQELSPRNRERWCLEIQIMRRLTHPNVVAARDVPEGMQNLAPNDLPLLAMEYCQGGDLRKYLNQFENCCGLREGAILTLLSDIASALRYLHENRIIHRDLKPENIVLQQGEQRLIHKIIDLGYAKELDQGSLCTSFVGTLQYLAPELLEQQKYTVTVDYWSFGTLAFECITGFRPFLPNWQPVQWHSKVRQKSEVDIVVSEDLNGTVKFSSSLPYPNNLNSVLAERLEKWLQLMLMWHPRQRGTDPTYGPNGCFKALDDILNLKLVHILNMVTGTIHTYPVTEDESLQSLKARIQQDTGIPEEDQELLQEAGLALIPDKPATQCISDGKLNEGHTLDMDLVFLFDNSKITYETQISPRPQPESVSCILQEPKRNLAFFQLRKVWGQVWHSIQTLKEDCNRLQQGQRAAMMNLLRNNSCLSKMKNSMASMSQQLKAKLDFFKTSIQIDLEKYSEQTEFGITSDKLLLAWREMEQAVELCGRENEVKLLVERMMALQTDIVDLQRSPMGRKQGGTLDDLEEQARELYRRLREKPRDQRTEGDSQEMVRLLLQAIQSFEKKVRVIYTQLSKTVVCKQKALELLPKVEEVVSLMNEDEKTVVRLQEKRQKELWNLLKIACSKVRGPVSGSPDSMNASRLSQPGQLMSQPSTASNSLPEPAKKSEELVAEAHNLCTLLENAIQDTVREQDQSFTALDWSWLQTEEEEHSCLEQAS
In a few lines: as §1

For another test, the target named is T4, IRE1(h) (Homo sapiens, UniProt O75460).
T4 construct: gene ERN1
In a few lines:
as §1

The next test has as its target T5, PKBβ(h) (Homo sapiens, UniProt P31751).
T5 construct: gene AKT2
In outline: as §1

The next test has as its target T6, PKA(h) (Homo sapiens, UniProt P17612).
T6 construct: gene PRKACA
In a few lines:
as §1

The target of a further test is EphA5(h) (Homo sapiens, UniProt P54756). In a few lines:
as §1

The next test concerns the target T7, MLK3(h) (Homo sapiens, UniProt Q16584).
T7 construct: gene MAP3K11
In a few lines: as §1

A further test concerns the target T8, PKCγ(h) (Homo sapiens, UniProt P05129).
T8 construct: gene PRKCG
In outline:
as §1

In another test the target is Fgr(h) (Homo sapiens, UniProt P09769). In outline:
as §1

A further test concerns the target Ret(h) (Homo sapiens, UniProt P07949). In a few lines:
as §1

Another test concerns the target CSK(h) (Homo sapiens, UniProt P41240). In outline:
as §1

Another test deals with VRK2(h) (Homo sapiens, UniProt Q86Y07). In outline: as §1
Sequence of VRK2(h) (Q86Y07 whole entry): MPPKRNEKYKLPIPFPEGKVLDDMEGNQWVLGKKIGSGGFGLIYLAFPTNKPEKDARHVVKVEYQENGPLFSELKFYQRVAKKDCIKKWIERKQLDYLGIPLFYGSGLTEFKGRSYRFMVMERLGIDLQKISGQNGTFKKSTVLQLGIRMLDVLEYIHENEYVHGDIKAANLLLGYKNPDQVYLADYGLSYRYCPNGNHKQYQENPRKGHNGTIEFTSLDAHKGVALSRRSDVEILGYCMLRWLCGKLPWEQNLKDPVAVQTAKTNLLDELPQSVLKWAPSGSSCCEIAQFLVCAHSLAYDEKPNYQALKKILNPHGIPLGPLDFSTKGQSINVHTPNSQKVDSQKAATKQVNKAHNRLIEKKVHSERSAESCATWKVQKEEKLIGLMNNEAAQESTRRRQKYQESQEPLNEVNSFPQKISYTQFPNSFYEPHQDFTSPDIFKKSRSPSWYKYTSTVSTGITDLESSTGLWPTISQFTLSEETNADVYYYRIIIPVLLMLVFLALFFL
Another test addresses T9, NDR1(h) (Homo sapiens, UniProt Q15208).
T9 construct: gene STK38
In outline: as §1

The mark [2] stands for this setting: read-out: Residual activity (%) Spautin-1 5aa.
[3] abbreviates: read-out: Residual activity (%) 5as.
Where [4] appears, read: read-out: Residual activity (%) 5at.
Setting [5] is: read-out: Residual activity (%) 5ay.

Like-named read-outs stand apart in the source and are kept apart here.

Our source for the remaining activity values is publication PMC7827406, “Structure–Activity Relationship (SAR) Study of Spautin-1 to Entail the Discovery of Novel NEK4 Inhibitors” (International Journal of Molecular Sciences, 2021).

T1 sequence (P42337 whole entry H1047R): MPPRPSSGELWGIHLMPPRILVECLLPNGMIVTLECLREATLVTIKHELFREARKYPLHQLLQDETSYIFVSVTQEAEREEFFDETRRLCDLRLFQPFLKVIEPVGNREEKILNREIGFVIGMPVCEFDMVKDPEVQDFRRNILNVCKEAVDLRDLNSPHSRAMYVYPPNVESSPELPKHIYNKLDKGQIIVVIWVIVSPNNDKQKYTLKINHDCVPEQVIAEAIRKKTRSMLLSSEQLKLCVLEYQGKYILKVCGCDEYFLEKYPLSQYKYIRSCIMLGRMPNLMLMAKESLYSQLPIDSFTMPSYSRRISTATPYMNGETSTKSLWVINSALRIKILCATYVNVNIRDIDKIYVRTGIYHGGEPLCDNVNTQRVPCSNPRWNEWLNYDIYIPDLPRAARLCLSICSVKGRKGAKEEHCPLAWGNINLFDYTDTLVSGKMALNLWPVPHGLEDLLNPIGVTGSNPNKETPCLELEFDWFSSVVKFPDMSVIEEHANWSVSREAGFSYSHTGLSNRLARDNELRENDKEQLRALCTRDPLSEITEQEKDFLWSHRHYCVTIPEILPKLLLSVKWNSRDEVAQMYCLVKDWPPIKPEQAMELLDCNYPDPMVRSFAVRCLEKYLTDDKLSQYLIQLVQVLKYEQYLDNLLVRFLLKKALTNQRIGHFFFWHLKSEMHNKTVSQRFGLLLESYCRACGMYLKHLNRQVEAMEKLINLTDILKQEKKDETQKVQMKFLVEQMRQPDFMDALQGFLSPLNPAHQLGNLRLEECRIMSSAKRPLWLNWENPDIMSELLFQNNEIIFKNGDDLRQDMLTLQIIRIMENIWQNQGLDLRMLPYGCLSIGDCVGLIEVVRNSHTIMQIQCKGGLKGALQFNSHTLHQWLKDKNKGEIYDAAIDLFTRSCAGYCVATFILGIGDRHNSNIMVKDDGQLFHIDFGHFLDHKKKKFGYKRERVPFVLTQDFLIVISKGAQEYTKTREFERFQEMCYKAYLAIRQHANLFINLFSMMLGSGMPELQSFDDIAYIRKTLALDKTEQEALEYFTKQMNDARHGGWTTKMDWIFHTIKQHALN
T1 sequence (P26450 whole entry partner): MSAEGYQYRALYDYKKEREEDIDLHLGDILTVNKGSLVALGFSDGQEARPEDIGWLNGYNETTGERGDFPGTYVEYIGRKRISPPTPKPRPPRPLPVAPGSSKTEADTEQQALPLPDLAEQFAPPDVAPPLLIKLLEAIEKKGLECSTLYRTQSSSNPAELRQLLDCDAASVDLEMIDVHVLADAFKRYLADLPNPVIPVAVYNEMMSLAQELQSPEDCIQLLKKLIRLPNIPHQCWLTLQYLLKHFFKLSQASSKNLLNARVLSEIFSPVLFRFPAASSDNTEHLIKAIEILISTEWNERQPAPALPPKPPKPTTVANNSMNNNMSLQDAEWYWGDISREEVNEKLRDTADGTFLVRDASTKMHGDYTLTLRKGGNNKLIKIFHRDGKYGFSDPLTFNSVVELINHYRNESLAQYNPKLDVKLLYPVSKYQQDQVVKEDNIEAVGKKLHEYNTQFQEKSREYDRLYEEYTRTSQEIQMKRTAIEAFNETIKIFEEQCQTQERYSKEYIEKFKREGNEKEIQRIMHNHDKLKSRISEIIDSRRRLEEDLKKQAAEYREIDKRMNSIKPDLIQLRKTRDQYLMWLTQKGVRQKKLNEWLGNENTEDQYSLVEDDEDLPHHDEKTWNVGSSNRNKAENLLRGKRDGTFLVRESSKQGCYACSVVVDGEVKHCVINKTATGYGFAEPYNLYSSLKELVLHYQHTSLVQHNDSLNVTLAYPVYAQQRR
T5 sequence (P31751 whole entry): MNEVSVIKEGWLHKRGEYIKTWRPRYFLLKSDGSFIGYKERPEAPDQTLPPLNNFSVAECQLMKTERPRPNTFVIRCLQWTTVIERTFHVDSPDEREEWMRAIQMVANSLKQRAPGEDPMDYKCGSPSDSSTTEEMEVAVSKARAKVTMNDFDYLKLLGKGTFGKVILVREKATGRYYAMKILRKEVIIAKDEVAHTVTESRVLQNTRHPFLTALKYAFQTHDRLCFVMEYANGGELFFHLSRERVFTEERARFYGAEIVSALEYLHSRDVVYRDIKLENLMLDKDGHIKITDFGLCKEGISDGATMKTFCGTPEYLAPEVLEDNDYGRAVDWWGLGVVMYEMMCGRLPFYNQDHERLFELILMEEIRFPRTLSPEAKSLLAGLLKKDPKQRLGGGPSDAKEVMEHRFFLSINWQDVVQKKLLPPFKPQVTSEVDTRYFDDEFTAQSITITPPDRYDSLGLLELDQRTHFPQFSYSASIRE
Sequence of EphA5(h) (P54756 whole entry): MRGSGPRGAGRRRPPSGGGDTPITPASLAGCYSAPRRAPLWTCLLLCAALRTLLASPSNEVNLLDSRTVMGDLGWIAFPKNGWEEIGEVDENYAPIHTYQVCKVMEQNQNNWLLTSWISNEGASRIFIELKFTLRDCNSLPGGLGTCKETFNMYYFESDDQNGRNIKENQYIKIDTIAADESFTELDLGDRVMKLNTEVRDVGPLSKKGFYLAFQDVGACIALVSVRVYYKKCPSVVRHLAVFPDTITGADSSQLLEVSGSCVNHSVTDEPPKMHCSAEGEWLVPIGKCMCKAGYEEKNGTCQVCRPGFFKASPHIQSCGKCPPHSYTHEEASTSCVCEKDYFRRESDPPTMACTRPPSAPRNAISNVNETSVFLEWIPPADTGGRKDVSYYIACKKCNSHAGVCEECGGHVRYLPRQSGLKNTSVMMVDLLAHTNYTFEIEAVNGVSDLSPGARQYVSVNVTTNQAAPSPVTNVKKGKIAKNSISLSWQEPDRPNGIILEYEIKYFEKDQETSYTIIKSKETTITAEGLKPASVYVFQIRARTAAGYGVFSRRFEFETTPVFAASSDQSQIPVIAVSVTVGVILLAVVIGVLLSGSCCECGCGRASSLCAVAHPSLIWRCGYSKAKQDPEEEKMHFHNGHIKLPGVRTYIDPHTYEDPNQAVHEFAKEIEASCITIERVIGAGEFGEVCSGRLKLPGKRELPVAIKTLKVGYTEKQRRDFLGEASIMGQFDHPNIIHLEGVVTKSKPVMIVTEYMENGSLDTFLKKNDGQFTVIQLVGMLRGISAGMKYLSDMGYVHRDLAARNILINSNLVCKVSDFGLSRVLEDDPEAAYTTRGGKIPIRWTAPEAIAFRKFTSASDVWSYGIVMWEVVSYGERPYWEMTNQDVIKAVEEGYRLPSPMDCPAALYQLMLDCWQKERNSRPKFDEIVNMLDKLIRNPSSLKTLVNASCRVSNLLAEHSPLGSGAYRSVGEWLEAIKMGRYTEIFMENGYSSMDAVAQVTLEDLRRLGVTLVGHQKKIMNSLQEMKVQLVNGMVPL
Sequence of Fgr(h) (P09769 whole entry): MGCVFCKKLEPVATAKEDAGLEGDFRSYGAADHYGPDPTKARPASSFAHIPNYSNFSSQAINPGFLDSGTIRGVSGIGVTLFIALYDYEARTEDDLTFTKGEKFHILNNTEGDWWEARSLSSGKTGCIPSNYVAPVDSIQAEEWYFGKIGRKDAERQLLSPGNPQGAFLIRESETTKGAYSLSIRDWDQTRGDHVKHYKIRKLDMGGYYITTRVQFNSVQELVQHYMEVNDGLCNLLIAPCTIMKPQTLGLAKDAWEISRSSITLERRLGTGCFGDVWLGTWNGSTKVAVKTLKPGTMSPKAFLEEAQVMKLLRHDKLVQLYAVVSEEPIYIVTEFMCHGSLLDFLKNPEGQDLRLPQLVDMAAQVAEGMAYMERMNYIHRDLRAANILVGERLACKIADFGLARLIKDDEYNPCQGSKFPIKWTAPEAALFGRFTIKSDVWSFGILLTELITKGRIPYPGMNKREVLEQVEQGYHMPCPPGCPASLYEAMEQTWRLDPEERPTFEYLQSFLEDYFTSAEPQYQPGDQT

As to `Fc1ccc(CNc2ncnc3ccc(F)cc23)cc1` [5aa, 6-Fluoro-N-(4-fluorobenzyl)-4-Quinazolinamine], the remaining activity at 10 µM in test [1] (setting [2]) is 96%; on SRPK2(h) (setting [2]) it was 80%; on CaMKIß(h) (setting [2]), 85%; on IKKβ(h) (setting [2]), 106%; at IRE1(h) (setting [2]) it was 99%; at PKBβ(h) (setting [2]) it was 106%. Also, the remaining activity at 10 µM at PKA(h) (setting [2]) was determined as 103%; at EphA5(h) (setting [2]), 90%; on MLK3(h) (setting [2]) it was 99%; at PKCγ(h) (setting [2]), 86%; on Fgr(h) (setting [2]), 112%; at Ret(h) (setting [2]), 69%. Moreover, the remaining activity at 10 µM at CSK(h) (setting [2]) was 82%; at VRK2(h) (setting [2]), 91%; at NDR1(h) (setting [2]), 108%.
As to `Fc1ccc(CCNc2ncnc3ccc(F)cc23)cc1` [5as, 6-Fluoro-N-[2-(4-Fluorophenyl)Ethyl]-4-Quinazolinamine], the remaining activity at 10 µM in test [1] (setting [3]) was 95%; on SRPK2(h) (setting [3]), 87%; at CaMKIß(h) (setting [3]) it was 84%; on IKKβ(h) (setting [3]), 110%; at IRE1(h) (setting [3]) it was 89%; on PKBβ(h) (setting [3]), 84%. Moreover, the remaining activity at 10 µM on PKA(h) (setting [3]) amounted to 101%; on EphA5(h) (setting [3]) it was 99%; at MLK3(h) (setting [3]), 99%; on PKCγ(h) (setting [3]) it was 74%; at Fgr(h) (setting [3]), 114%; on Ret(h) (setting [3]), 99%. Moreover, the remaining activity at 10 µM at CSK(h) (setting [3]) amounted to 85%; on VRK2(h) (setting [3]) it was 99%; on NDR1(h) (setting [3]) it was 96%.
For the compound `Fc1ccc2ncnc(NCCc3ccc(Cl)cc3)c2c1` [5at, N-[2-(4-Chlorophenyl)Ethyl]-6-Fluoro-4-Quinazolinamine], the remaining activity at 10 µM in test [1] (setting [4]) was determined as 94%; on SRPK2(h) (setting [4]), 104%; at CaMKIß(h) (setting [4]) it was 81%; on IKKβ(h) (setting [4]), 98%; at IRE1(h) (setting [4]) it was 88%; on PKBβ(h) (setting [4]), 75%. In addition, the remaining activity at 10 µM on PKA(h) (setting [4]) was determined as 106%; on EphA5(h) (setting [4]), 87%; at MLK3(h) (setting [4]), 114%; at PKCγ(h) (setting [4]) it was 72%; at Fgr(h) (setting [4]), 95%; on Ret(h) (setting [4]), 62%. Further, the figures for the remaining activity at 10 µM at CSK(h) (setting [4]), at VRK2(h) (setting [4]) and on NDR1(h) (setting [4]) were 79%, 94% and 89%, respectively.
For the compound `COc1ccc2ncnc(Nc3cccc(F)c3)c2c1` [5ay, N-(3-Fluorophenyl)-6-Methoxy-4-Quinazolinamine], the remaining activity at 10 µM in test [1] (setting [5]) is 93%; at SRPK2(h) (setting [5]), 80%; at CaMKIß(h) (setting [5]) it was 92%; at IKKβ(h) (setting [5]), 107%; on IRE1(h) (setting [5]), 83%; at PKBβ(h) (setting [5]), 106%. The remaining activity at 10 µM worked out at 97% on PKA(h) (setting [5]); 95% at EphA5(h) (setting [5]); 97% on MLK3(h) (setting [5]); 81% at PKCγ(h) (setting [5]); 90% at Fgr(h) (setting [5]); 43% on Ret(h) (setting [5]). Moreover, the remaining activity at 10 µM on CSK(h) (setting [5]) was found to be 91%; on VRK2(h) (setting [5]), 88%; at NDR1(h) (setting [5]), 98%.
